Test results from ChEMBL document CHEMBL4507268 (2021).

Experiments:
[1] = molecular target: Cyclin-dependent kinase 9 (Homo sapiens) (UniProt P50750); details: Compound concentration 1000.0 nM
[2] = molecular target: Mitogen-activated protein kinase kinase kinase 10 (Homo sapiens) (UniProt Q02779); details: Compound concentration 1000.0 nM
[3] = molecular target: RAC-beta serine/threonine-protein kinase (Homo sapiens) (UniProt P31751); details: Compound concentration 1000.0 nM
[4] = molecular target: Casein kinase I isoform alpha-like (Homo sapiens) (UniProt Q8N752); details: Compound concentration 1000.0 nM
[5] = molecular target: Casein kinase I isoform delta (Homo sapiens) (UniProt P48730); details: Compound concentration 1000.0 nM
[6] = molecular target: Ankyrin repeat and protein kinase domain-containing protein 1 (Homo sapiens) (UniProt Q8NFD2); details: Compound concentration 1000.0 nM
[7] = molecular target: Mitogen-activated protein kinase kinase kinase 19 (Homo sapiens) (UniProt Q56UN5); details: Compound concentration 1000.0 nM
[8] = molecular target: T1, Serine/threonine-protein kinase 4 (Homo sapiens) (UniProt Q13043); details: Compound concentration 1000.0 nM
T1 sequence (whole entry): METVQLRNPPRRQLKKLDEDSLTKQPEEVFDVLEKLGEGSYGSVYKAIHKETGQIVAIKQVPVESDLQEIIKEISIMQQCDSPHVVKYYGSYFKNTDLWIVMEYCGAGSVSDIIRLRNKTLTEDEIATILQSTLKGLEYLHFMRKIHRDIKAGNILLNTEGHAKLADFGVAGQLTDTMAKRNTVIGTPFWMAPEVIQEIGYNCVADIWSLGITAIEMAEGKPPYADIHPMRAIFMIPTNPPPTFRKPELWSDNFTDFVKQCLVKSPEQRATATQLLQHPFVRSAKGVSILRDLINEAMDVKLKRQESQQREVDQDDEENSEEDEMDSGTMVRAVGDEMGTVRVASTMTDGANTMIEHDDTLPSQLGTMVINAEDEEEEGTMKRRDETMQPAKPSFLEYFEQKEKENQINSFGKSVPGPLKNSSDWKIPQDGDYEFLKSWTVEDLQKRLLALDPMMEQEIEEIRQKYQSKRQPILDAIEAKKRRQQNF

[9] = molecular target: T2, Serine/threonine-protein kinase TAO3 (Homo sapiens) (UniProt Q9H2K8); details: Compound concentration 1000.0 nM
T2 sequence (whole entry): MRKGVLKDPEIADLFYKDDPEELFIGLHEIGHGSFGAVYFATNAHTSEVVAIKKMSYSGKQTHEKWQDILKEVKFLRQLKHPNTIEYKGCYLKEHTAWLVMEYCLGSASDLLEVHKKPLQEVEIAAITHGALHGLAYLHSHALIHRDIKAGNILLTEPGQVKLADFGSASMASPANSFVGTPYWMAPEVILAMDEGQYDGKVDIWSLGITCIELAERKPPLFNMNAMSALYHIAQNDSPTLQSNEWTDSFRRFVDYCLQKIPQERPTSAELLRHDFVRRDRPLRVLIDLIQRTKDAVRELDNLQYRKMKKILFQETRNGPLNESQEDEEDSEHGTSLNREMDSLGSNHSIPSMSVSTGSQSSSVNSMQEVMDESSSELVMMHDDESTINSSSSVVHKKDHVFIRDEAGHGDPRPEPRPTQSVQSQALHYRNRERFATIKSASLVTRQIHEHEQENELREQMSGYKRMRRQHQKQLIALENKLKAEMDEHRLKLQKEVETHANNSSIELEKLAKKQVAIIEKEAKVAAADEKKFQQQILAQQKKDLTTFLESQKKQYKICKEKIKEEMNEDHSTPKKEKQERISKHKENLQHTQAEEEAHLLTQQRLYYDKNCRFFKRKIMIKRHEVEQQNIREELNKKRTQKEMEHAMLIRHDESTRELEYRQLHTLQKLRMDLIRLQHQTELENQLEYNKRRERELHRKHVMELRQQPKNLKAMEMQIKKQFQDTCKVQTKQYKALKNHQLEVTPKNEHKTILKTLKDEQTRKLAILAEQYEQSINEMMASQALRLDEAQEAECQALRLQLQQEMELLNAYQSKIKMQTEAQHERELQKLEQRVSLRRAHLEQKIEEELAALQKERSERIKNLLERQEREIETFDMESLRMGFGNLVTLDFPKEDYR

[10] = molecular target: Serine/threonine-protein kinase DCLK1 (Homo sapiens) (UniProt O15075); details: Compound concentration 1000.0 nM
[11] = molecular target: Serine/threonine-protein kinase PLK3 (Homo sapiens) (UniProt Q9H4B4); details: Compound concentration 1000.0 nM
[12] = molecular target: Activin receptor type-2A (Homo sapiens) (UniProt P27037); details: Compound concentration 1000.0 nM
[13] = molecular target: T3, Testis-specific serine/threonine-protein kinase 3 (Homo sapiens) (UniProt Q96PN8); details: Compound concentration 1000.0 nM
T3 sequence (whole entry): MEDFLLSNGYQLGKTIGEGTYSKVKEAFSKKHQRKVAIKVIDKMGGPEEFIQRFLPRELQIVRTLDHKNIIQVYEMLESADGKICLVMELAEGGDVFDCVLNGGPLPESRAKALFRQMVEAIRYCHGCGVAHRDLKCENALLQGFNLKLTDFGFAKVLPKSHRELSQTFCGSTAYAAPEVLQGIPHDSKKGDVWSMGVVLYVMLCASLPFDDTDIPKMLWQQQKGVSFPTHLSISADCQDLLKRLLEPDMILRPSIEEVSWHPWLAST

[14] = molecular target: AP2-associated protein kinase 1 (Homo sapiens) (UniProt Q2M2I8); details: Compound concentration 1000.0 nM
[15] = molecular target: Serine/threonine-protein kinase WNK1 (Homo sapiens) (UniProt Q9H4A3); details: Compound concentration 1000.0 nM
[16] = molecular target: GABA-A receptor; anion channel (Rattus norvegicus) (UniProt O09028+P15431+P18506+P18508+P19969+P20236+P23574+P23576+P28471+P28473+P30191+P62813+P63079+P63138+Q91ZM7+Q9ES14); details: Compound concentration 10.0 uM
[17] = system: Tyrosine-protein kinase ABL1 (Homo sapiens), P00519 [Q252H]; details: Compound concentration 1000.0 nM

Ankyrin repeat and protein kinase domain-containing protein 1 (Homo sapiens), sequence (Q8NFD2 whole entry, the tested form may be a part): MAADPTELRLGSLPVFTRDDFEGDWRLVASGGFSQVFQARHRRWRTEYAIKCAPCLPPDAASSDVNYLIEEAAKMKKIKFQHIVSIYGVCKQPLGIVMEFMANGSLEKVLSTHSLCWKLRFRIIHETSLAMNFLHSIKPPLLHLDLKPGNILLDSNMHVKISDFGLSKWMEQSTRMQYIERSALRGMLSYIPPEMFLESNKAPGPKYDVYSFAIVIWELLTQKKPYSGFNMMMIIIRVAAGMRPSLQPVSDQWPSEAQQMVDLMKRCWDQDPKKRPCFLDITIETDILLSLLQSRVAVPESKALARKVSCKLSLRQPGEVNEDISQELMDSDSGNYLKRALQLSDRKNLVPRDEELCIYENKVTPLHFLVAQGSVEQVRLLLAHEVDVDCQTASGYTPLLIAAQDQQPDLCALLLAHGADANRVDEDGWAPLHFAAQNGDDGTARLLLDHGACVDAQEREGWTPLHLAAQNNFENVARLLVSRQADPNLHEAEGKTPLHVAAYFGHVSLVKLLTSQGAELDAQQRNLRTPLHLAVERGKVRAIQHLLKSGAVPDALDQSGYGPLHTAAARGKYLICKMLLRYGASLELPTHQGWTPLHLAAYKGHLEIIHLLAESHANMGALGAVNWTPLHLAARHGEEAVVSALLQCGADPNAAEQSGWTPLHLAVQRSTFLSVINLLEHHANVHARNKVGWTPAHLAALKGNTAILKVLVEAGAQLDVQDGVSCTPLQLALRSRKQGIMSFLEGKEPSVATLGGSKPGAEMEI
Serine/threonine-protein kinase WNK1 (Homo sapiens), sequence (Q9H4A3 whole entry, looked up): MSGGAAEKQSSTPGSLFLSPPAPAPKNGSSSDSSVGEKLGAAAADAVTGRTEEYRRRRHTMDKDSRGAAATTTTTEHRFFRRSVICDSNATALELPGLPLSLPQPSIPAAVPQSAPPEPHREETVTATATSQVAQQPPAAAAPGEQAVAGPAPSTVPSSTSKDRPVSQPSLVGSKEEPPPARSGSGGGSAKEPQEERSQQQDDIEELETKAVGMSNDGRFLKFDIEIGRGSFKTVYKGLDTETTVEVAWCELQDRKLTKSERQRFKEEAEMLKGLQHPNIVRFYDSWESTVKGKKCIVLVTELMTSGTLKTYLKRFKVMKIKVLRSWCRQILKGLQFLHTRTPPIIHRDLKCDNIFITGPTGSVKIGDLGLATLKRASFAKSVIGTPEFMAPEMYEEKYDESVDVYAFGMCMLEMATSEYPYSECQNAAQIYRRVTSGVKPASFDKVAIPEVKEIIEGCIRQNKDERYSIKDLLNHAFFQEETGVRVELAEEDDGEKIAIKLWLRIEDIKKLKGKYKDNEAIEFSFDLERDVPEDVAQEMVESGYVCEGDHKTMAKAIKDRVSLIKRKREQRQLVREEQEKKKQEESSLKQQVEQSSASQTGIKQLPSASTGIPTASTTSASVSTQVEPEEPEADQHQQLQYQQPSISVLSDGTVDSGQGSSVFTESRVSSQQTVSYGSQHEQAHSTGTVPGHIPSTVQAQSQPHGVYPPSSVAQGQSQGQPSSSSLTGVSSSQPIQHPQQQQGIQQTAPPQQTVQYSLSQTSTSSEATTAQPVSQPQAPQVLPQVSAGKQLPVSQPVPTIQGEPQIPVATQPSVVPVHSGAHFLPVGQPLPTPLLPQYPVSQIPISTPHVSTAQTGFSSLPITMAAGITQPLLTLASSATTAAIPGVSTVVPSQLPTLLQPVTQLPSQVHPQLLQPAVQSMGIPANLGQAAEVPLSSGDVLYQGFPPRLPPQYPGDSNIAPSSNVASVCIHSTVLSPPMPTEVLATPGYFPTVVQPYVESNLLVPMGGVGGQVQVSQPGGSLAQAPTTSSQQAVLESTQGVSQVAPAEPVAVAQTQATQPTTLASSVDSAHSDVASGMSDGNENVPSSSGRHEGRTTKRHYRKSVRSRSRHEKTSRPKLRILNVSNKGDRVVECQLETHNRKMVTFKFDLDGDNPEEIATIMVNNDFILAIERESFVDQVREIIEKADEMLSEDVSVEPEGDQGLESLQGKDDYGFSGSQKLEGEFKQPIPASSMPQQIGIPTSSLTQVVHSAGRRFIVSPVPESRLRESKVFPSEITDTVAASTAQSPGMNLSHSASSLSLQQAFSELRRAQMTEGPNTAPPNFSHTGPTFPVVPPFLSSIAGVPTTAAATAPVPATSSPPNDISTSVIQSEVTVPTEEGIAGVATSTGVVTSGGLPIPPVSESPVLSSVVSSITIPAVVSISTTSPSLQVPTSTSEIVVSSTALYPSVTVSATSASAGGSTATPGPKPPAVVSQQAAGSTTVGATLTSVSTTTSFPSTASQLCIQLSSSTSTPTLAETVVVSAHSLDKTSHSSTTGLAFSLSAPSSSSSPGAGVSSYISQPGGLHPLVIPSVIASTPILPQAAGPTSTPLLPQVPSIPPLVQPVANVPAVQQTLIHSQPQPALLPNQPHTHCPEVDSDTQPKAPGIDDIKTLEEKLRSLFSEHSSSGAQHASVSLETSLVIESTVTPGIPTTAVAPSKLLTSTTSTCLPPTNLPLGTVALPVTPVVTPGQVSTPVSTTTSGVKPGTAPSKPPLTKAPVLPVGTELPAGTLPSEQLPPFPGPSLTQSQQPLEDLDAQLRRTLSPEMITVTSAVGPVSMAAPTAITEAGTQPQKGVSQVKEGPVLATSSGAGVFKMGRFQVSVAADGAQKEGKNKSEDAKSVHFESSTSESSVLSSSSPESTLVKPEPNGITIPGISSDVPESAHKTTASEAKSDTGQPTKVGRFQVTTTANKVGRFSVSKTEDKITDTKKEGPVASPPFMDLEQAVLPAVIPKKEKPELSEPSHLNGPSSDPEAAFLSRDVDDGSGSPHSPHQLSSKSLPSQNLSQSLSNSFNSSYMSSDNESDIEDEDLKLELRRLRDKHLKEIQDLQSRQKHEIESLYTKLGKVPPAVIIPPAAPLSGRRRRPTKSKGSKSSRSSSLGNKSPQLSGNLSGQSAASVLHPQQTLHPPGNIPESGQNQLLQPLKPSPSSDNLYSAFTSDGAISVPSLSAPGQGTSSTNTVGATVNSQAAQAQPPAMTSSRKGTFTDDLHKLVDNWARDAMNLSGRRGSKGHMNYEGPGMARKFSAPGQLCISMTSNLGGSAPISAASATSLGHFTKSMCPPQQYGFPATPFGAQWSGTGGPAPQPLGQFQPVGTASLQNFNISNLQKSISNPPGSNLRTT
Casein kinase I isoform delta (Homo sapiens), sequence (P48730 whole entry, looked up, the tested form may be a part, canonical isoform): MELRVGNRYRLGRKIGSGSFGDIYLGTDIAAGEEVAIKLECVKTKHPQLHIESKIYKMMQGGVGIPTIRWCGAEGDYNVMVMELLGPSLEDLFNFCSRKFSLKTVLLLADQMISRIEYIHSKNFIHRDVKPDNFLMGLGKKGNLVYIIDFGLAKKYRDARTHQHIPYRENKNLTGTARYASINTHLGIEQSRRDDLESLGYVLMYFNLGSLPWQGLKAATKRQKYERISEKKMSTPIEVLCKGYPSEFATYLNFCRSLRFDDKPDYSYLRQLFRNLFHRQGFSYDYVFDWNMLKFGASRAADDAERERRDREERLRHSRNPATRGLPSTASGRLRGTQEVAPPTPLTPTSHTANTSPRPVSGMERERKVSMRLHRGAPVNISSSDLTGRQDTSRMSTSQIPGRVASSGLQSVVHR
Serine/threonine-protein kinase PLK3 (Homo sapiens), sequence (Q9H4B4 whole entry, looked up): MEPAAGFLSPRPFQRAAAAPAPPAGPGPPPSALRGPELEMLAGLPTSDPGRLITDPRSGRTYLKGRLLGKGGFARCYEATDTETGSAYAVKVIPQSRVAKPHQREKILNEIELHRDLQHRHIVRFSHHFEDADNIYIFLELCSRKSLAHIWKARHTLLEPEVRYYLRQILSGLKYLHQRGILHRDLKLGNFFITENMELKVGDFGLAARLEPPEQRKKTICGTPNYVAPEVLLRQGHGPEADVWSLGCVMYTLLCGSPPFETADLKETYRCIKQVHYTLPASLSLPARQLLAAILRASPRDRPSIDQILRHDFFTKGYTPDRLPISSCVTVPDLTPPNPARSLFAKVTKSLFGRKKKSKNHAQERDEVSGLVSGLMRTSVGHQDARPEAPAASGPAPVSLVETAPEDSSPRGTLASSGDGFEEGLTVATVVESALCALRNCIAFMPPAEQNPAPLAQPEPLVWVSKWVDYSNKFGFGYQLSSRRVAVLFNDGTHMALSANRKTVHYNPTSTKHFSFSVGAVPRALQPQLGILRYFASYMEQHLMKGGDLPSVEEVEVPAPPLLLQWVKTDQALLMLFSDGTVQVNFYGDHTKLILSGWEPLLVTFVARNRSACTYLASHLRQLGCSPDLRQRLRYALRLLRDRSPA
Cyclin-dependent kinase 9 (Homo sapiens), sequence (P50750 whole entry): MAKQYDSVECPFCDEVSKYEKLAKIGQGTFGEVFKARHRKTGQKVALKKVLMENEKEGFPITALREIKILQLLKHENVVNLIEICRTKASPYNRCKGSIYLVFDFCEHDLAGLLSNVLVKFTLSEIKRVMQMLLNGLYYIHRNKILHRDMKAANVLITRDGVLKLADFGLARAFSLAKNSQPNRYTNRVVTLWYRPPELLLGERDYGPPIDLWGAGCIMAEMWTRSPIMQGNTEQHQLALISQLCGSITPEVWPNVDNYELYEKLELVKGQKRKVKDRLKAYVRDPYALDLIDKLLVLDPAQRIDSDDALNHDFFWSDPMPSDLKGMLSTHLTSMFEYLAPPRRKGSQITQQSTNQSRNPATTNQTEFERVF
RAC-beta serine/threonine-protein kinase (Homo sapiens), sequence (P31751 whole entry, canonical isoform): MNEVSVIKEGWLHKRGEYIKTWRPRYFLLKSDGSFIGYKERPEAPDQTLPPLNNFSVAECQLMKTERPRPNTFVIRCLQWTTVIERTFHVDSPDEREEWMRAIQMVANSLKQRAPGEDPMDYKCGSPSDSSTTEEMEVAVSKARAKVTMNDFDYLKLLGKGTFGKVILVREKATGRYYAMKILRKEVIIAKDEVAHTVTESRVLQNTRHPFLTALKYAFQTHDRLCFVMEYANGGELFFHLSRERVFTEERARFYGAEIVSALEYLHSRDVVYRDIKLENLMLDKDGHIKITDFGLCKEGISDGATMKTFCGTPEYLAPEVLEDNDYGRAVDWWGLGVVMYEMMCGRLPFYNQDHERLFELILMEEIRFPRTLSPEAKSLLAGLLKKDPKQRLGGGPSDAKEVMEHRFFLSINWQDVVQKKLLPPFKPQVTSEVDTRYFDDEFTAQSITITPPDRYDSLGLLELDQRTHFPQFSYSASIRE

Cc1nc(C2CCN(C(=O)c3ccc(OC(F)(F)F)cc3N)CC2)c2ncc(N3CCN(C)CC3)cc2n1 [BAY-693]
inactive: residual activity [1] 79% | residual activity [2] 100% | residual activity [3] 100% | residual activity [4] 100% | residual activity [5] 83% | residual activity [6] 81% | residual activity [7] 79% | residual activity [8] 85% | residual activity [9] 100% | residual activity [10] 85% | residual activity [11] 100% | residual activity [12] 100% | residual activity [13] 100% | residual activity [14] 100% | residual activity [15] 94% | inhibition [16] 15% | residual activity [17] 100%

CN1CCN(c2cnc3c(C4CCN(C(=O)c5ccc(OC(F)(F)F)cc5N)CC4)ncnc3c2)CC1 [BAY-885]
inactive: residual activity [1] 100% | residual activity [2] 100% | residual activity [3] 100% | residual activity [4] 100% | residual activity [5] 100% | residual activity [6] 98% | residual activity [7] 83% | residual activity [8] 84% | residual activity [9] 100% | residual activity [10] 85% | residual activity [11] 100% | residual activity [12] 100% | residual activity [13] 68% | residual activity [14] 100% | residual activity [15] 100% | inhibition [16] 21.8% | residual activity [17] 100%
